These results are taken from ChEMBL document CHEMBL1201862, “PubChem BioAssay data set” (2004).

Among the test systems are UO-31; KM-20L2; SF-295; HL-60; IGROV-1; OVCAR-4; SN12C; NCI-H460; Malme-3M; NCI-H522; HCT-15; NCI-H23; HOP-92; OVCAR-5; UACC-257.
What all share (test): NCI-60 cell line screen, 48 h

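Assay format: 96-well plates, 48-hour exposure. At the GI50, growth is halved.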 Activity calls are given as the source filed them. Rule as the data show it: active = GI50 up to about 1.1 µM and inactive = higher.

Consider `COc1ccc2c(c1)CCc1c-2nc2cc3c(cc2c1O)OCO3`, for which the GI50 with UO-31, with KM-20L2, with SF-295, in the assay with HL-60, in the assay with IGROV-1 and with OVCAR-4 was > 100 µM (inactive) throughout. The GI50 in the assay with SN12C is > 100 µM (inactive); in the assay on NCI-H460 it was > 100 µM (inactive); in the assay on Malme-3M, > 100 µM (inactive); with NCI-H522, > 100 µM (inactive); in the assay with HCT-15 it was more than 100 µM; in the assay with NCI-H23, > 100 µM (inactive). The GI50 in the assay on HOP-92 is > 100 µM (inactive).

For the compound `Cc1cccc2c1N(C(=O)/C=C\C(=O)O)C(c1c(C)[nH]c3ccccc13)C2` (stereo unspecified), the GI50 was > 100 µM (inactive) with UO-31; > 100 µM (inactive) in the assay on KM-20L2; 44.8 µM (inactive) with SF-295; 20.7 µM (inactive) with HL-60; > 10 µM (inactive) with IGROV-1; 57.7 µM (inactive) in the assay on OVCAR-4. For the same compound, the GI50 in the assay with OVCAR-5 is > 100 µM (inactive); with SN12C, 40.7 µM (inactive); with NCI-H460, > 100 µM (inactive); in the assay with UACC-257 it was 33.8 µM (inactive); in the assay on Malme-3M it was 20.1 µM (inactive); in the assay with NCI-H522, 18.5 µM (inactive). Moreover, the results for the GI50 in the assay on NCI-H23 and in the assay with HOP-92 were 43.8 µM (inactive) and 22.5 µM (inactive), respectively.

For the compound `COc1cc(Nc2cnc3ccc(C(F)(F)F)cc3n2)cc(OC)c1OC`, the GI50 with UO-31 is 67.1 µM (inactive); with KM-20L2, 3.79 µM (inactive); in the assay on SF-295, 5.53 µM (inactive); in the assay with HL-60, 9.71 µM (inactive); with OVCAR-5, > 100 µM (inactive); in the assay on SN12C, > 100 µM (inactive). For the same compound, the GI50 in the assay with NCI-H460 is 12.9 µM (inactive); in the assay on UACC-257 it was 9.84 µM (inactive); in the assay with Malme-3M it was > 100 µM (inactive); in the assay with HCT-15 it was 3.95 µM; with NCI-H23 it was > 100 µM (inactive); with HOP-92, 4.82 µM (inactive).

With `COC(=O)CSc1nnc(-c2ccc(O)c([N+](=O)[O-])c2)[nH]1`, the GI50 in the assay on UO-31, in the assay with KM-20L2, with SF-295, with HL-60, in the assay with IGROV-1 and in the assay with OVCAR-4 was > 100 µM (inactive) in each case. Besides, the GI50 in the assay with OVCAR-5 was > 100 µM (inactive); with SN12C, > 100 µM (inactive); in the assay with NCI-H460, > 100 µM (inactive); with UACC-257, > 100 µM (inactive); with Malme-3M, > 100 µM (inactive); with HCT-15, more than 100 µM. In addition, the GI50 in the assay on NCI-H23 and with HOP-92 was > 100 µM (inactive) in each case.

`COc1ccc(OC)c2[s+]snc12`: the GI50 in the assay with UO-31 is 29 µM (inactive); in the assay on KM-20L2 it was > 100 µM (inactive); with SF-295, 55.7 µM (inactive); in the assay with HL-60 it was 33.3 µM (inactive); in the assay on IGROV-1 it was > 100 µM (inactive); in the assay with OVCAR-4 it was 60.4 µM (inactive). The GI50 in the assay with OVCAR-5 was > 100 µM (inactive); in the assay on SN12C it was > 100 µM (inactive); in the assay on NCI-H460 it was 36.6 µM (inactive); with UACC-257 it was 27.1 µM (inactive); in the assay with Malme-3M it was > 100 µM (inactive); with NCI-H522, 47.8 µM (inactive). The GI50 in the assay with NCI-H23 was 75.2 µM (inactive).

Turning to `COc1cc2c(cc1OC)C(C(=O)c1cccc(OC)c1OC)C(=O)N(C)CC2` (stereo unspecified), the GI50 with UO-31, with KM-20L2, in the assay with HL-60, with IGROV-1, in the assay on OVCAR-4 and with SN12C was > 100 µM (inactive) each time. Further, the GI50 with NCI-H460 was > 100 µM (inactive); in the assay on UACC-257 it was > 100 µM (inactive); with Malme-3M, > 100 µM (inactive); in the assay on NCI-H522, > 100 µM (inactive); with HCT-15, more than 100 µM; in the assay with NCI-H23 it was > 100 µM (inactive). In addition, the GI50 with HOP-92 was 65.5 µM (inactive).

In the case of `Fc1cccc2cc3ccc4cccc5ccc(c12)c3c45`, the GI50 in the assay with UO-31, with KM-20L2, with SF-295, in the assay with HL-60, with IGROV-1 and with OVCAR-4 was > 100 µM (inactive) throughout. In addition, the GI50 in the assay with OVCAR-5 was 7.4 µM (inactive); in the assay with SN12C, > 100 µM (inactive); in the assay with UACC-257, > 100 µM (inactive); with Malme-3M, > 100 µM (inactive); in the assay on NCI-H522, > 100 µM (inactive); with NCI-H23, 1.63 µM (inactive).

Consider `O=C(NC12CC3CCC1CC(C3)C2)[C@@H]1CCCN1C(=O)OCc1ccccc1` (stereo partly specified), for which the GI50 in the assay on UO-31 was 24 µM (inactive); with KM-20L2 it was 46.9 µM (inactive); in the assay on SF-295, 36.1 µM (inactive); in the assay with HL-60 it was 25.8 µM (inactive); in the assay on IGROV-1 it was > 100 µM (inactive); in the assay on OVCAR-5, > 100 µM (inactive). For the same compound, the GI50 is 46.5 µM (inactive) with SN12C; 34.7 µM (inactive) in the assay with UACC-257; 37.5 µM (inactive) with Malme-3M; 54.7 µM (inactive) with NCI-H522; 44.2 µM in the assay with HCT-15; 43.3 µM (inactive) in the assay on NCI-H23. Besides, the GI50 in the assay on HOP-92 was 18.6 µM (inactive).

On to `CC1=C(C(=O)Nc2cc(=O)n(C)c(=O)n2C)C(c2ccco2)C(C(=O)Nc2cc(=O)n(C)c(=O)n2C)=C(C)N1`, for which the GI50 in the assay with UO-31, in the assay with KM-20L2, in the assay on SF-295, with HL-60, in the assay on IGROV-1 and with OVCAR-4 was > 100 µM (inactive) throughout. The GI50 in the assay on OVCAR-5, in the assay with SN12C, in the assay with NCI-H460, in the assay on UACC-257, with Malme-3M and in the assay on NCI-H522 was > 100 µM (inactive) each time. Also, the GI50 is > 100 µM (inactive) in the assay with NCI-H23 and 48.5 µM (inactive) with HOP-92.

In the case of `CN(C)C(=S)/N=c1\ss/c(=N\C(=S)N(C)C)n1-c1ccc(Cl)c(Cl)c1`, the GI50 with UO-31, with KM-20L2, with SF-295, with HL-60, in the assay on IGROV-1 and with OVCAR-4 was > 100 µM (inactive) in each case. Also, the GI50 in the assay on OVCAR-5, in the assay with SN12C, with NCI-H460, with UACC-257, in the assay with Malme-3M and in the assay with NCI-H522 was > 100 µM (inactive) each time. Moreover, the GI50 with HCT-15 is more than 100 µM; in the assay on NCI-H23 it was > 100 µM (inactive).

With `COc1ccc(C2CC(=O)c3c(O)cc(O)cc3O2)cc1O` (stereo unspecified), the GI50 is 58.7 µM (inactive) in the assay on UO-31; > 100 µM (inactive) in the assay on KM-20L2; > 100 µM (inactive) with SF-295; > 100 µM (inactive) in the assay with HL-60; > 100 µM (inactive) with IGROV-1; 65.2 µM (inactive) in the assay on OVCAR-4. In addition, the GI50 in the assay on OVCAR-5, with SN12C, with NCI-H460, in the assay with UACC-257, in the assay on Malme-3M and in the assay on NCI-H522 was > 100 µM (inactive) each time. Also, the GI50 in the assay with HCT-15 was more than 100 µM; with NCI-H23 it was > 100 µM (inactive).
